Experimental data from US20080118434A1 (The Board of the Trustees of The Leland Stanford J, priority 2003, published 2008).

Experiments:
[1] = test system: hypothalamic genes (mRNA levels); assay: Microarray analysis of gene expression in hypothalamus of rats treated chronically with antidepressants; assay type: in vivo, rat; conditions: rats treated with fluoxetine, bupropion and/or desipramine; i.p. twice daily for four weeks
Text: Membrane microarray analysis was used to compare expression levels of over 8,000 genes in the hypothalamus of rats treated chronically with a specific serotonin reuptake inhibitor (i.e., fluoxetine), a tricyclic antidepressant (i.e., desipramine), and a dopamine reuptake inhibitor (i.e., bupropion).
(§1) Adult Sprague-Dawley male rats (250-300 g) were assigned to one of the following four groups (n=10 per group): 1. Saline injected animals (controls). 2. Bupropion treated animals. 3. Desipramine treated animals, and 4. Fluoxetine treated animals. Bupropion (20 mg/kg/day), Desipramine (10 mg/kg/d), Fluoxetine (10 mg/kg/d) and Saline were injected twice daily intraperitoneal (i.p.) for four weeks. Animals were sacrificed in the AM, the day after the last injection. Brains were obtained by rapid decapitation, and processed for gene array analysis (GAA), RT-PCR and in situ hybridization.
(§2) Four brains from each group were used for GAA, and real time RT-PCR confirmation. The remaining six brains were sectioned for in situ hybridization confirmation of the gene array analysis.
(§3) Array analysis was done using GeneChip® Rat Neurobiology U34 Arrays (Affymetrix). Whole hippocampus were dissected and total RNA samples were extracted using standard methods (Trizol, Invitrogen; Quigen Rneasy Mini Kit). Total RNA from each of the experimental groups were pooled. The column purified total RNA (10 μg) was converted to biotinylated cRNA hybridization probe following the manufacturers protocol. Labeled cRNA (30 ug) was fragmented in fragmentation buffer, and 15 ug were hybridized to the oligonucletide microarray in 300 μl of hybridization solution.
(§4) Samples from each group were run in independently labeled triplicates. The raw intensity data was analyzed with dCHIP software (Li and Wong, 2002).
Genes were identified using a criteria of greater than 20% fold change (90% lower bound confidence limit) and a t-test value yielding a probability of p<0.05.
The microarray analysis results were confirmed by in situ hybridization.

[2] = test system: hippocampal genes (mRNA levels); assay: Microarray analysis (GeneChip Rat Neurobiology U34) of gene expression in hippocampus of rats treated chronically with antidepressants; assay type: in vivo; conditions: for hippocampal genes commonly regulated by desipramine and bupropion (list: NG,NG dimethylarginine dimethylaminohydrolase ... Retina S-antigen): desipramine 10 mg/kg/d; for hippocampal genes commonly regulated by desipramine and bupropion (list: NG,NG dimethylarginine dimethylaminohydrolase ... Retina S-antigen) / hippocampal genes commonly regulated by fluoxetine and bupropion (list: Transferrin ... Carbonic anhydrase 2): bupropion 20 mg/kg/day; for hippocampal genes commonly regulated by desipramine and bupropion (list: NG,NG dimethylarginine dimethylaminohydrolase ... Retina S-antigen) / hippocampal genes commonly regulated by fluoxetine and bupropion (list: Transferrin ... Carbonic anhydrase 2) / hippocampal genes commonly regulated by fluoxetine and desipramine (list: Glutathione peroxidase 1 ... Insulin like growth factor II, Somatostatin): i.p., four weeks, vs saline; for hippocampal genes commonly regulated by desipramine and bupropion (list: NG,NG dimethylarginine dimethylaminohydrolase ... Retina S-antigen) / hippocampal genes commonly regulated by fluoxetine and desipramine (list: Glutathione peroxidase 1 ... Insulin like growth factor II, Somatostatin): >20% fold change, p<0.05; for hippocampal genes commonly regulated by fluoxetine and bupropion (list: Transferrin ... Carbonic anhydrase 2): fluoxetine 10 mg/kg/d, selected results confirmed by real time RT-PCR; for hippocampal genes commonly regulated by fluoxetine and desipramine (list: Glutathione peroxidase 1 ... Insulin like growth factor II, Somatostatin): 10 mg/kg/d each
Method: as §1, §2, §3, §4
Using a criteria of greater than 20% fold change (90% lower bound confidence limit) and a t-test value yielding a probability of p<0.05, we found 28 genes that were regulated by all three antidepressants compared to saline treatment. Nine of these genes were ESTs.
Regulation of these genes can conveniently be confirmed by Real Time RT-PCR, and in situ hybridization. Regulation of two of the genes has been confirmed by RT-PCR.

[3] = rats treated with bupropion and/or fluoxetine
[4] = rats treated with desipramine and/or bupropion
[5] = rats treated with fluoxetine, bupropion and/or desipramine, i.p. twice daily for four weeks
[6] = rats treated with fluoxetine and/or desipramine

hippocampal genes commonly regulated by desipramine and bupropion (list: NG,NG dimethylarginine dimethylaminohydrolase ... Retina S-antigen) [2] | hippocampal genes commonly regulated by fluoxetine and bupropion (list: Transferrin ... Carbonic anhydrase 2) [2] | hippocampal genes commonly regulated by fluoxetine and desipramine (list: Glutathione peroxidase 1 ... Insulin like growth factor II, Somatostatin) [2] | Compound | number of hypothalamic genes with altered mRNA levels [1] | number of hippocampal genes with altered mRNA levels [2, 3] | number of hippocampal genes with altered mRNA levels [2, 4] | number of hippocampal genes with altered mRNA levels [2, 5] | number of hippocampal genes with altered mRNA levels [2, 6]
commonly regulated | commonly regulated |  | CC(NC(C)(C)C)C(=O)c1cccc(Cl)c1 (stereo not drawn) [bupropion] | 3 | 11 | 46 | 18 | 
commonly regulated |  | commonly regulated | CNCCCN1c2ccccc2CCc2ccccc21 [desipramine] | 3 |  | 46 | 18 | 33
 | commonly regulated | commonly regulated | CNCCC(Oc1ccc(C(F)(F)F)cc1)c1ccccc1 (stereo not drawn) [fluoxetine] | 3 | 11 |  | 18 | 33
